This is an account of results in patent publication US9187474B2, “Raf inhibitor compounds” (Deciphera Pharmaceuticals, LLC, priority 2012, dated 2015).

The subject of series [1] is phospho-ERK in HCT-116 cells. Briefly: HCT-116 cell pERK assay (AlphaScreen SureFire). The class given is cell-based. The settings on record: Homo sapiens; HCT-116 cells, B-Raf wild type, K-Ras mutation; 4 hours; read-out: IC50 reduction of phospho-ERK signal. Here is the method:
Examples of Formula I are tested against HCT-116 cells harboring wild type B-Raf and K-Ras mutation. The phospho-ERK activities are evaluated as described below.
HCT-116 cells (catalog #CCL-247) are obtained from the American Type Culture Collection (ATCC, Manassas, Va.). Briefly, cells are grown in McCoy's 5A supplemented with 10% characterized fetal bovine serum (Invitrogen, Carlsbad, Calif.), and 1% Penicillin/Streptomycin/L-Glutamine at 37 degrees Celsius, 5% CO2, and 95% humidity. Cells are allowed to expand until reaching 75-90% confluency at which point they are subcultured or harvested for assay use. HCT-116 cells suspended in complete media are added to 384-well tissue culture treated plates (3×10^5 cells/mL; 7,500 cells per well). The cells are incubated overnight at 37 degrees Celsius, 5% CO2, and 95% humidity. Next, test compound or DMSO diluted in complete media is added to the wells (0.25% final DMSO concentration). The plates are then incubated for 4 hours at 37 degrees Celsius, 5% CO2, and 95% humidity. Following compound incubation, the cells are lysed at 4° C. for 20 minutes with shaking Cell lysates are centrifuged and the supernatant is transferred to a new plate. An aliquot of each lysate is transferred to a white 384-well assay plate. Using the AlphaScreen SureFire pERK kit (Perkin-Elmer, Waltham, Mass.), an acceptor bead mixture is added to each well and incubated for 2 h at room temperature in the dark. A donor bead mixture is then added to each well and incubated for 2 h at room temperature in the dark. Plates are read using a Synergy2 plate reader (Biotek, Winooski, Vt.) in Plate Mode with Timing Control. Read: (F)1: excitation: 680/30 nm, emission: Plug. 2: Excitation: Plug, emission: 570/100 nm. Top mirror 635 nm. Data is analyzed using Prism software (Graphpad, San Diego, Calif.) to calculate IC50 values and Excel software (Microsoft, Redmond, Wash.) to calculate stimulation compared to control.
For orientation: Alpha assays give light when donor and acceptor beads are brought close together.

For series [2], the system named is A375res cells.
Description: (§1) A vemurafenib-resistant cell line is generated by chronic treatment of the human melanoma cell line A375 (ATCC) harboring the B-Raf V600E mutation with increasing concentrations PLX4720.
The subject of series [3] is A375res cells. Briefly: Proliferation assay in vemurafenib-resistant A375res melanoma cells. The settings on record: Homo sapiens, 72 h, read-out: absolute IC50 values.
Description: as §1

Counter-ions that a name gives are not always drawn.

The term IC50 denotes the concentration needed to halve the response being measured. Consider `CNc1cc2nc(C)c(-c3cc(NC(=O)NCC4CC(C)(C)C4)c(F)cc3F)cc2cn1` [Example 13, 1-(2,4-difluoro-5-(2-methyl-7-(methylamino)-1,6-naphthyridin-3-yl)phenyl)-3-((3,3-dimethylcyclobutyl)methyl)urea hydrochloride], for which the IC50 in series [1] was in the range of 2 to 96 nM; in series [3] it was 9 to 504 nM. The “IC50 shift A375 to A375res” value in series [2] was 0.5-4.9 fold.

Take `CNc1cc2nc(C)c(-c3cc(NC(=O)NC4CCOC(C)(C)C4)c(F)cc3C)cc2cn1` (stereo not drawn) [Example 20, 1-(2,2-dimethyltetrahydro-2H-pyran-4-yl)-3-(2-fluoro-4-methyl-5-(2-methyl-7-(methylamino)-1,6-naphthyridin-3-yl)phenyl)urea hydrochloride]: the IC50 in series [1] lay in the range of 2 to 96 nM; in series [3], 9 to 504 nM. For the same compound, in series [2], the “IC50 shift A375 to A375res” value is given as 0.5-4.9 fold.

`CNc1cc2nc(C)c(-c3cc(NC(=O)NCCC4(C(F)(F)F)CC4)c(F)cc3C)cc2cn1` [Example 23, 1-(2-fluoro-4-methyl-5-(2-methyl-7-(methylamino)-1,6-naphthyridin-3-yl)phenyl)-3-(2-(1-(trifluoromethyl)cyclopropyl)ethyl)urea hydrochloride]: the IC50 in series [1] lay within 2 to 96 nM; in series [3] it was 9 to 504 nM. The “IC50 shift A375 to A375res” value in series [2] is on record as 0.5-4.9 fold.

Turning to `CNc1cc2nc(C)c(-c3cc(NC(=O)NCCC(C)C)c(F)cc3C)cc2cn1` [Example 45, 1-(2-fluoro-4-methyl-5-(2-methyl-7-(methylamino)-1,6-naphthyridin-3-yl)phenyl)-3-isopentylurea], the values for the IC50 in series [1] and in series [3] were 2 to 96 nM and 9 to 504 nM, respectively. Besides, the “IC50 shift A375 to A375res” value in series [2] is given as 0.5-4.9 fold.

For the compound `CNc1cc2nc(C)c(-c3cc(NC(=O)NCC(O)C(C)(C)C)c(F)cc3C)cc2cn1` (stereo not drawn) [Example 55, 1-(2-fluoro-4-methyl-5-(2-methyl-7-(methylamino)-1,6-naphthyridin-3-yl)phenyl)-3-(2-hydroxy-3,3-dimethylbutyl)urea], the IC50 lay in the range of 2 to 96 nM in series [1] and 9 to 504 nM in series [3]. For the same compound, in series [2], the “IC50 shift A375 to A375res” value was 0.5-4.9 fold.

As to `CNc1cc2nc(C)c(-c3cc(NC(=O)NC(C)CC(C)(C)C)c(F)cc3C)cc2cn1` (stereo not drawn) [Example 59, 1-(4,4-dimethylpentan-2-yl)-3-(2-fluoro-4-methyl-5-(2-methyl-7-(methylamino)-1,6-naphthyridin-3-yl)phenyl)urea], the “IC50 shift A375 to A375res” value in series [2] was 0.5-4.9 fold. Further, the IC50 in series [3] lay in the range of 9 to 504 nM.

`CNc1cc2nc(C)c(-c3cc(NC(=O)NCC(O)C(C)C)c(F)cc3C)cc2cn1` (stereo not drawn) [Example 60, 1-(2-fluoro-4-methyl-5-(2-methyl-7-(methylamino)-1,6-naphthyridin-3-yl)phenyl)-3-(2-hydroxy-3-methylbutyl)urea]: the “IC50 shift A375 to A375res” value in series [2] is 0.5-4.9 fold. For the same compound, the IC50 in series [3] was 9 to 504 nM.

On to `CNc1cc2nc(C)c(-c3cc(NC(=O)NCC(O)C(F)(F)F)c(F)cc3C)cc2cn1` (stereo not drawn) [Example 61, 1-(2-fluoro-4-methyl-5-(2-methyl-7-(methylamino)-1,6-naphthyridin-3-yl)phenyl)-3-(3,3,3-trifluoro-2-hydroxypropyl)urea], for which the “IC50 shift A375 to A375res” value in series [2] is 0.5-4.9 fold. Further, the 50% inhibitory concentration (IC50) in series [3] fell in the range of 9 to 504 nM.

In the case of `Cc1cc(F)c(NC(=O)NCCC(C)(C)F)cc1-c1cc2cnc(NCCO)cc2nc1C` [Example 65, 1-(3-fluoro-3-methylbutyl)-3-(2-fluoro-5-(7-((2-hydroxyethyl)amino)-2-methyl-1,6-naphthyridin-3-yl)-4-methylphenyl)urea], in series [2], the “IC50 shift A375 to A375res” value is 0.5-4.9 fold. Besides, in series [3], the IC50 fell in the range of 9 to 504 nM.

For the compound `CNc1cc2nc(C)c(-c3cc(NC(=O)N[C@H](C)CC(C)(C)C)c(F)cc3C)cc2cn1` [Example 72, (R)-1-(4,4-dimethylpentan-2-yl)-3-(2-fluoro-4-methyl-5-(2-methyl-7-(methylamino)-1,6-naphthyridin-3-yl)phenyl)urea], the “IC50 shift A375 to A375res” value in series [2] was 0.5-4.9 fold. In addition, the IC50 in series [3] is 9 to 504 nM.

As for `COC(C)(C)CCNC(=O)Nc1cc(-c2cc3cnc(N)cc3nc2C)c(C)cc1F` [Example 80, 1-(5-(7-amino-2-methyl-1,6-naphthyridin-3-yl)-2-fluoro-4-methylphenyl)-3-(3-methoxy-3-methylbutyl)urea hydrochloride], the “IC50 shift A375 to A375res” value in series [2] is given as 0.5-4.9 fold. In addition, the IC50 in series [3] is 9 to 504 nM.

For the compound `Cc1cc(F)c(NC(=O)NCCC(C)(C)F)cc1-c1cnc2cc(N)ncc2c1` [Example 81, 1-(5-(7-amino-1,6-naphthyridin-3-yl)-2-fluoro-4-methylphenyl)-3-(3-fluoro-3-methylbutyl)urea], in series [2], the “IC50 shift A375 to A375res” value is 0.5-4.9 fold. In addition, the IC50 in series [3] was 9 to 504 nM.

On to `Cc1cc(F)c(NC(=O)NC2CCCCCC2)cc1-c1cc2cnc(N)cc2nc1C` [Example 82, 1-(5-(7-amino-2-methyl-1,6-naphthyridin-3-yl)-2-fluoro-4-methylphenyl)-3-cycloheptylurea], for which the “IC50 shift A375 to A375res” value in series [2] is reported as 0.5-4.9 fold. Besides, in series [3], the IC50 lay within 9 to 504 nM.

`Cc1cc(F)c(NC(=O)NCCC2(C(F)(F)F)CC2)cc1-c1cc2cnc(N)cc2nc1C` [Example 83, 1-(5-(7-amino-2-methyl-1,6-naphthyridin-3-yl)-2-fluoro-4-methylphenyl)-3-(2-(1-(trifluoromethyl)cyclopropyl)ethyl)urea hydrochloride]: the IC50 lay in the range of 2 to 96 nM in series [1] and 9 to 504 nM in series [3]. The “IC50 shift A375 to A375res” value in series [2] is listed as 0.5-4.9 fold.

`CNc1cc2nc(C)c(-c3cc(NC(=O)NCCC4CC4)c(F)cc3C)cc2cn1` [Example 84, 1-(2-cyclopropylethyl)-3-(2-fluoro-4-methyl-5-(2-methyl-7-(methylamino)-1,6-naphthyridin-3-yl)phenyl)urea hydrochloride]: the IC50 in series [1] lay within 2 to 96 nM; in series [3], 9 to 504 nM. In series [2], the “IC50 shift A375 to A375res” value was 0.5-4.9 fold.

As for `CNc1cc2nc(C)c(-c3cc(NC(=O)NCCCC(F)(F)F)c(F)cc3C)cc2cn1` [Example 91, hydrochloride], the “IC50 shift A375 to A375res” value in series [2] was 0.5-4.9 fold. The IC50 in series [3] is 9 to 504 nM.

With `CNc1cc2nc(C)c(-c3cc(NC(=O)NCCC4CCC4)c(F)cc3C)cc2cn1` [Example 97, 1-(2-cyclobutylethyl)-3-(2-fluoro-4-methyl-5-(2-methyl-7-(methylamino)-1,6-naphthyridin-3-yl)phenyl)urea hydrochloride], the “IC50 shift A375 to A375res” value in series [2] is reported as 0.5-4.9 fold. For the same compound, the half-maximal inhibitory concentration (IC50) in series [3] lay within 9 to 504 nM.

In the case of `CNc1cc2nc(C)c(-c3cc(NC(=O)NCCCC(C)(F)F)c(F)cc3C)cc2cn1` [Example 99, 1-(4,4-difluoropentyl)-3-(2-fluoro-4-methyl-5-(2-methyl-7-(methylamino)-1,6-naphthyridin-3-yl)phenyl)urea hydrochloride], in series [2], the “IC50 shift A375 to A375res” value is given as 0.5-4.9 fold. Further, the IC50 in series [3] was 9 to 504 nM.

On to `CNc1cc2nc(C)c(-c3cc(NC(=O)N[C@H]4C[C@@](C)(F)C4)c(F)cc3C)cc2cn1` [Example 100, 1-(3-fluoro-trans(3-methylcyclobutyl))-3-(2-fluoro-4-methyl-5-(2-methyl-7-(methylamino)-1,6-naphthyridin-3-yl)phenyl)urea], for which, in series [2], the “IC50 shift A375 to A375res” value was 0.5-4.9 fold. The 50% inhibitory concentration (IC50) in series [3] was 9 to 504 nM.

Turning to `CNc1cc2nc(C)c(-c3cc(NC(=O)NCCCC(C)(C)F)c(F)cc3C)cc2cn1` [Example 101, 1-(2-fluoro-4-methyl-5-(2-methyl-7-(methylamino)-1,6-naphthyridin-3-yl)phenyl)-3-(4-fluoro-4-methylpentyl)urea hydrochloride], the “IC50 shift A375 to A375res” value in series [2] is reported as 0.5-4.9 fold. Further, the IC50 in series [3] lay within 9 to 504 nM.

For the compound `Cc1nc2cc(NC(=O)C3CC3)ncc2cc1-c1cc(NC(=O)NCCC2CC2)c(F)cc1F` [Example 123, N-(3-(5-(3-(2-cyclopropylethyl)ureido)-2,4-difluorophenyl)-2-methyl-1,6-naphthyridin-7-yl)cyclopropanecarboxamid hydrochloride], the “IC50 shift A375 to A375res” value in series [2] is reported as 0.5-4.9 fold. In series [3], the IC50 is 9 to 504 nM.

On to `Cc1cc(F)c(NC(=O)NCCC(C)(C)C)cc1-c1cc2cnc(N)cc2nc1C` [Example 129, 1-(5-(7-amino-2-methyl-1,6-naphthyridin-3-yl)-2-fluoro-4-methylphenyl)-3-(3,3-dimethylbutyl)urea hydrochloride], for which the IC50 was in the range of 2 to 96 nM in series [1] and 9 to 504 nM in series [3].
